The source of these data is article PMC11040352, “CD38‐Specific Gallium‐68 Labeled Peptide Radiotracer Enables Pharmacodynamic Monitoring in Multiple Myeloma with PET” (Advanced Science, 2024).

Assay [1] concerns the target T1, recombinant human CD38 protein (Homo sapiens, UniProt P28907).
T1 construct: purchased R&D systems 2404-AC
The experiment in a line: Affinity measurement by surface plasmon resonance (SPR), human CD38. Format: binding. How it is done:
The affinity of AJ206 for hCD38 and mCD38 recombinant proteins were evaluated by SPR. The experiments were conducted using a Biacore T200 instrument with a CM5 chip at 25 °C. The ligands used were His‐Tagged human CD38 (R&D systems, catalog # 2404‐AC, 43 kDa, 0.5 mg mL^−1 stock concentration) and mouse CD38 proteins (R&D systems, catalog # 4947‐AC, 40 kDa, 1.81 mg mL^−1 stock concentration), which were immobilized onto the CM5 chip. AJ206 (2089.2 Da, 10 × 10^−3 M stock concentration) was used as the analyte, which flowed over the ligand immobilized surface. FC2 was used as the experimental flow cell, while FC1 served as the reference. Anti‐His antibody (1 mg mL^−1 stock concentration) was immobilized on both FC1 and FC2 using standard amine coupling chemistry. The immobilization running buffer used was PBS‐P (20 × 10^−3 M phosphate buffer pH 7.4, 137 × 10^−3 M NaCl, 2.7 × 10^−3 M KCl, 0.05% v/v surfactant P20). Human CD38 was captured onto FC2 at a level of ≈860 RU, with a 1:20 dilution and 25 µg mL^−1 diluted concentration in PBS‐P. Mouse CD38 was captured onto FC4 at a level of 1360 RU, with a 1:50 dilution and 36.2 µg mL^−1 diluted concentration in PBS‐P. The theoretical R max values were calculated based on the captured response values and are presented in Table 2 , assuming a 1:1 interaction mechanism. […]
(In SPR one partner is held on a chip, and binding of the other changes the refractive index at the surface.)

A further assay deals with PDX tumors. In words: PET imaging of patient‐derived xenografts (PDXs), incl. before and after ATRA. It is filed as in vivo, NSG mice. As to conditions: PDX mice, oral ATRA 500 µg per day for 3 d, compared to pre‐treatment. How it is done:
To establish PDX models, immune‐deficient NSG male mice (NOD/Shi‐scid IL‐2rgnull), aged 6–8 weeks, were employed after being irradiated at an absorbed dose of 200 cGy. PCL cells, sourced from two patients and anonymized, were obtained from Dr. Gocke's laboratory. Under sterile conditions, the cells were thawed and treated with DNAse at a concentration of 20 µg mL^−1. After cell counting, 30 000 cells were subjected to flow cytometry analysis to assess CD38 expression. The remaining cells were subcutaneously inoculated at a concentration of 5 × 10^6 cells in 100 µL of a solution comprising 60% Matrigel Basement Matrix (Corning 356230) diluted with HBSS. The animals were included in the experiments once the PDX volumes reached tumor volumes of 100–200 mm^3.
Mice bearing flank tumors and disseminated disease were injected intravenously with [^68Ga]Ga‐AJ206 and PET images were acquired 60 min after injection of the radiotracer. […] PET images were quantified by drawing ROI on tissues using Amide 1.0.6 and reported as %ID/cc.
To assess the pharmacodynamics of ATRA‐induced CD38 expression in vivo, mice bearing PDX tumors (n = 6) were subjected to image using [^68Ga]Ga‐AJ206 to quantify CD38 expression prior to treatment. […] All images were analyzed using AMIDE software with standard ROI analysis techniques.
(In general: In xenograft studies the graft and the host belong to different species.)

For assay [2], the system named is MM cell lines (U266, RPMI8226, MM1S, and MOLP8). The experiment in a line: ATRA treatment, flow cytometry of CD38 surface expression. Particulars: four MM cell lines, ATRA 48 h. It is filed as cell-based, human.
Procedure: To evaluate CD38 surface expression, cells (1 × 10^6) were stained with PE‐labelled anti‐human CD38 monoclonal antibody (clone HB‐7, BioLegend Cat # 356604) in FACS buffer (0.5% FBS with 2 mM EDTA) for 30 min on ice. After washing and resuspending in FACS buffer, data were acquired on a BD Accuri C6 plus flow cytometer and analyzed using FlowJo software. Receptor density measurements were performed using Quantibrite Beads (BD Biosciences, cat #340495), which contain four levels of phycoerythrin (PE) per bead. Gates were drawn on low, medium low, medium high, and high PE binding beads, and the geometric mean from these populations was correlated with the lot‐specific PE molecule/bead on a logarithmic scale. This correlation was used to translate cell population geometric mean to receptor/cell for the respective cell type. To evaluate the pharmacodynamic effects of ATRA therapy on MM cells, U266, RPMI8226, MM1S, and MOLP8 cells were seeded at a concentration of 0.5 million in 500 µL per well in triplicates in a six‐well plate. A 200 × 10^−9 M working solution of all‐trans retinoic acid (ATRA, Sigma‐Aldrich #554720) was prepared by diluting in culture media. Next, 500 µL of the working solution was added to each well, and the cells were incubated for 48 h at 37 °C in a 5% CO2 atmosphere. […]
Assay [3] shares this test system. The experiment in a line: ATRA treatment, in vitro uptake of [^68Ga]Ga‐AJ206. It is filed as cell-based, human. As to conditions: ATRA treated cells compared to control treatment. As to the method:
In vitro binding assays were conducted to determine the binding of [^68Ga]Ga‐AJ206 to U266, RPMI8226, MM1S, and MOLP8 cells. Approximately 1 µCi of [^68Ga]Ga‐AJ206 was incubated with 1 × 10^6 cells in 100 µL of culture media for 60 min at 4 °C. After incubation, cells were washed three times with ice‐cold PBS containing 0.1% tween‐20 and counted on an automated gamma counter (1282 Compugamma CS, Pharmacia/LKB Nuclear, Inc., Gaithersburg, MD). […] All cellular uptake studies were performed in quadruplicate for each cell line and repeated three times.
To evaluate the pharmacodynamic effects of ATRA therapy on MM cells, U266, RPMI8226, MM1S, and MOLP8 cells were seeded at a concentration of 0.5 million in 500 µL per well in triplicates in a six‐well plate. A 200 × 10^−9 M working solution of all‐trans retinoic acid (ATRA, Sigma‐Aldrich #554720) was prepared by diluting in culture media. Next, 500 µL of the working solution was added to each well, and the cells were incubated for 48 h at 37 °C in a 5% CO2 atmosphere. After incubation, cells were transferred to FACS tubes, medium was removed by centrifugation, and the cells were resuspended in FACS buffer for flow cytometry and in vitro binding studies, following the same protocol as previously described.

T1 sequence (P28907 whole entry): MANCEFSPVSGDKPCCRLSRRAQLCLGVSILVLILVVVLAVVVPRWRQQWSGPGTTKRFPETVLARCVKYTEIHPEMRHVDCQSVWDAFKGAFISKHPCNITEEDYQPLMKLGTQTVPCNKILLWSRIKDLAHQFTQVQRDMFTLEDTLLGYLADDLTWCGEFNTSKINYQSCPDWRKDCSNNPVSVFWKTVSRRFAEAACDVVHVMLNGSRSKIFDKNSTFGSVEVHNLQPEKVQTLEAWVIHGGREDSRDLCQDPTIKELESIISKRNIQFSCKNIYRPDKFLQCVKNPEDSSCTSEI

As for `CC[C@H](C)[C@@H]1NC(=O)[C@@H]2CCCN2C(=O)[C@H](Cc2ccccc2)NC(=O)[C@H](CC(=O)O)NC(=O)[C@H](C)NC(=O)[C@@H]2CSCc3cc(cc(c3)CSC[C@H](NC(=O)[C@H](C)NC(=O)CCOCCOCCOCCNC(=O)CN3CCN(CC(=O)O)CCN(CC(=O)O)CC3)C(=O)N[C@@H](C(C)C)C(=O)N3CCC[C@H]3C(=O)N2)CSC[C@@H](C(N)=O)NC(=O)[C@H](Cc2ccc(O)cc2)NC(=O)[C@H](Cc2c[nH]c3ccccc23)NC1=O` [AJ206], in assay [1] (hCD38, read-out: dissociation constant (K D)), the Kd was determined as 19.1 ± 0.99 nM. Further, the koff in assay [1] (recombinant human CD38, mean ± SEM (n = 2), read-out: Koff (1/s) x10^-4) was found to be 0.0006 ± 0.000121 s⁻¹.
Take `CC1=C(/C=C/C(C)=C/C=C/C(C)=C/C(=O)O)C(C)(C)CCC1` [ATRA, all‐trans retinoic acid]: in the assay on PDX tumors, the “change of [^68Ga]Ga‐AJ206 radioactivity uptake in tumors (PET)” value is on record as “significant increase”. In assay [2], the “change of CD38 expression” value is on record as “increased CD38 expression”. The “change of [^68Ga]Ga‐AJ206 radioactivity uptake in treated cells” value in assay [3] is listed as “significant increase”.
